The text below walks through data of article PMC8439235, “High-yield synthesis and purification of recombinant human GABA transaminase for high-throughput screening assays” (Journal of Enzyme Inhibition and Medicinal Chemistry, 2021).

One experiment addresses T1, bacterial GABA-T (Pseudomonas fluorescens, UniProt Q4KKA1).
T1 sequence (Q4KKA1 1-425): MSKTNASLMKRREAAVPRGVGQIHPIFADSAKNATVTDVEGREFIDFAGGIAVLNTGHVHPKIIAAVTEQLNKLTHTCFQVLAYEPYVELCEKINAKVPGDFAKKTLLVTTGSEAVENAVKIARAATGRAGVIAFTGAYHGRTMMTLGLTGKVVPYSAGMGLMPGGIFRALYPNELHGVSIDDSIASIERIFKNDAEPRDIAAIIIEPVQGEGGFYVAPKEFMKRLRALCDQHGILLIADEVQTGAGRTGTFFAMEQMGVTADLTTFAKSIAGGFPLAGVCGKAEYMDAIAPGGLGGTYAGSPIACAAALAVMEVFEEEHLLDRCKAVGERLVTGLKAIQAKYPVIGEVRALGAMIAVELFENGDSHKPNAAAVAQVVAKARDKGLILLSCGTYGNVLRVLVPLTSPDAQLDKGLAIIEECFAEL
As to the kind of experiment: GABA-T inhibition assay with GABase, NADPH absorbance at 340 nm (Mixture A). To be noted: for IC50: 10 min preincubation, 25 °C, pH 8.6, 200 µM GABA. Type of experiment: biochemical. An excerpt:
GABase (Merck, G7509) is a convenient and inexpensive source of SSADH, as it is a commercially available mixture composed of bacterial GABA-T and SSADH obtained from Pseudomonas fluorescens. However, GABase was not able to be used directly in our human GABA-T assay due to the presence of bacterial GABA-T. So we used the bacterial SSADH isolation method as previously described, which allowed large amounts of bacterial SSADH to be isolated quickly and conveniently from GABase by irreversibly inhibiting the bacterial GABA-T activity. Five milligrams of gabaculine (Santa Cruz Biotechnology, sc-200473), a naturally occurring GABA-T irreversible inhibitor, was added to 25 ml of 1 U/mL GABase solution (reconstituted with 50 mM K4P2O7 buffer at pH 8.6), followed by maintaining the reaction at 4 °C for 30 min. The residual gabaculine, which also can inactivate recombinant human GABA-T, was eliminated by dialysis at 4 °C with 2 L of K4P2O7 buffer, changed 3 times per 9 h followed by the final dialysis overnight. The isolated bacterial SSADH was stored at −80 °C for long-term storage.
(§1) All test samples were prepared at a final volume of 200 µl/well in a 96-well plate with a clear flat bottom, and the enzyme reaction was carried out at 25 °C. The final solution of the assay in Figure 3(B) consisted of SSA (0, 12.5, 25, 50, 100, and 200 µM), 2.5 mM β-NADP^+, 1 mM 2-mercaptoethanol (2-ME), and SSADH (from 20 µL of 1 U/mL gabaculine-treated GABase) in 50 mM K4P2O7 buffer (pH 8.6). The final solution of the assay in Figure 3(C) consisted of GABA (0, 100 and 200 µM), 2.5 mM β-NADP^+, 5 mM α-KG, 1 mM 2-ME and each enzymatic mixture (Mixture A: 10 µL of 1 U/mL GABase; Mixture B: 10 µL of 1 U/mL gabaculine-treated GABase; Mixture C: 2 µg of human GABA-T mixed with 10 µL of 1 U/mL gabaculine-treated GABase) in 50 mM K4P2O7 buffer at pH 8.6. The final solution of the assay in Figure 3(D) consisted of 200 µM GABA, 2.5 mM β-NADP^+, 5 mM α-KG, 1 mM 2-ME, SSADH (from Mixture B) and human GABA-T at various concentrations (0.156, 0.313, 0.625, 1.25, 2.5, 5, and 10 µg/mL) in 50 mM K4P2O7 buffer at pH 8.6. […] The final solution of the assay in Figure 4(A) consisted of gabaculine (0, 15.63, 31.25, 62.5, 125, 250, 500, and 1000 nM), 200 µM GABA, 2.5 mM β-NADP^+, 5 mM α-KG, and each enzymatic mixture (A or C) in 50 mM K4P2O7 buffer (pH 8.6) containing or not containing 1 mM 2-ME. […] The change in 340 nm absorbance at 25 °C caused by the conversion of NADP^+ to NADPH, which is proportional to GABA-T activity, was recorded every 4 min kinetically with SpectraMax iD5 Multi-Mode Microplate Reader (Molecular Devices). GABA-T activity was calculated during the linear phase of the reaction, corrected for background from blanks. All experiments were performed in triplicate and data were presented as mean ± SEM (Standard Error of Mean) or each replicate. Data plotting and regression analysis were performed with GraphPad Prism software (Version 9.1.2, GraphPad Software).

The next experiment has as its target T2, recombinant human GABA-T (Homo sapiens, UniProt P80404).
T2 construct: made in house; host or cells: Expi293F human cells, transient transfection
As to the kind of experiment: GABA-T inhibition assay, coupled with SSADH, NADPH absorbance at 340 nm (Mixture C). The following applies: for IC50: IC50 for human GABA-T, 10 min preincubation, 25 °C, pH 8.6, 200 µM GABA. Type of experiment: biochemical. The procedure:
as §1

Like-named read-outs stand apart in the source and are kept apart here.

T2 sequence (P80404 29-500): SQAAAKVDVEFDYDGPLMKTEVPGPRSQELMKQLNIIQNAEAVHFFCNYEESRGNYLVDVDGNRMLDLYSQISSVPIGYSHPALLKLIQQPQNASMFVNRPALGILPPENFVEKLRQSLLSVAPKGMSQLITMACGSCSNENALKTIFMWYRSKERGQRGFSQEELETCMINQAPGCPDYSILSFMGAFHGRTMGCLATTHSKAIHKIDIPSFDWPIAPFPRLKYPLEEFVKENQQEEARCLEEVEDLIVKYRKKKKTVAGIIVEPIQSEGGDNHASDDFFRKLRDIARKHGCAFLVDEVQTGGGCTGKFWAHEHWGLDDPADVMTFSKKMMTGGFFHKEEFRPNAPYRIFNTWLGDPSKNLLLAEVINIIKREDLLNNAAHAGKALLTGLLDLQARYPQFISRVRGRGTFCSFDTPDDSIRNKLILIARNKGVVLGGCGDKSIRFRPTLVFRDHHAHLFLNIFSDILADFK

Regarding `NC1C=CC=C(C(=O)O)C1` (stereo not drawn) [gabaculine], the “GABA degradation-dependent NADPH synthesis in GABase after treatment” value on bacterial GABA-T (5 mg gabaculine in 25 ml of 1 U/mL GABase, 4 °C, 30 min, then dialysis, GABA 0, 100, 200 µM) was “completely impaired”. Also, the IC50 on bacterial GABA-T (IC50 for bacterial GABA-T, absence of 2-ME (multimeric form)) was found to be 0.19 µM; at bacterial GABA-T (IC50 for bacterial GABA-T, presence of 1 mM 2-ME (monomeric form)) it was 0.13 µM; at recombinant human GABA-T (absence of 2-ME (homodimeric/multimeric form)), 0.22 µM; at recombinant human GABA-T (presence of 1 mM 2-ME (monomeric form)), 0.12 µM.
Consider `C=CC(N)CCC(=O)O` (stereo not drawn) [vigabatrin], for which the IC50 on bacterial GABA-T (absence of 2-ME (multimeric form), read-out: IC50 for bacterial GABA-T) came to 631 µM; at bacterial GABA-T (presence of 1 mM 2-ME (monomeric form), read-out: IC50 for bacterial GABA-T) it was 14200 µM. Further, the “difference in sensitivity, human vs bacterial GABA-T” value at recombinant human GABA-T (with 2-ME, monomeric form) is recorded as 202 fold; at recombinant human GABA-T (without 2-ME, human homodimeric vs bacterial multimeric form) it was 70 fold.

Usually IC50 stands for the point on the concentration scale where inhibition reaches its midpoint.
